# Results reported in PMC6843786, “Temporin-SHa and Its Analogs as Potential Candidates for the Treatment of Helicobacter pylori” (Biomolecules, 2019).
# Non-standard residues stand in square brackets, D forms with d. Residues, ends and D or L forms follow the SMILES beside them.
# What was measured:
# human gastric explants [1] = assay: Ex vivo toxicity assay, LDH release from human gastric explants; format: cell-based; conditions: peptides 100 µM, CTAB 300 µM, % of total release
# Experimental: To further evaluate the innocuity of the peptides, ex vivo experiments were performed using human explants as previously described. Briefly, human gastric tissue samples were obtained from patients undergoing surgery at the Hospital Laveran (Marseille, France), unit of gastrointestinal surgery according to a collaborative clinical transfer project. The procedures were approved by the French ethic committee (CODECOH n° DC-2019-3402). All patients agreed for the use of their tissues for research purposes. Samples were taken from healthy patients during sleeve gastrectomy from macroscopically unaffected area as identified by the surgeons. After resection, the specimens were placed in ice-cold oxygenated sterile DMEM solution containing 1% streptomycin/penicillin solution and 50 μg/mL gentamycin and were directly transferred to the laboratory within 15 min on ice. Gastric tissues were extensively washed and maintained in ice-cold culture media containing 1% streptomycin/penicillin solution and 50 μg/mL gentamycin. Tissues were cleaned from vascular vessels and conjunctive tissue using forceps under binocular microscope. Gastric explants (wet weight of 20–30 mg) were then isolated from the cleaned resections using surgical punch (diameter of 0.5 cm^2). […] Finally, the explants were washed three times with culture media without antibiotics and transferred into 24-well plates before being incubated in RPMI media without fetal bovine serum, antibiotics and phenol red at 37 °C in the 5% CO2 incubator with 100 µM of peptides for 2, 4 or 8 h. Phenol red was omitted from the culture media since it interferes with the lactate dehydrogenase (LDH) assay. The detergent cetyl-trimethylammonium bromide (CTAB) at 300 µM was used as positive control of tissue damages. At the end of the incubation, the explants were collected and washed three times with PBS^++ and were fixed overnight at 4 °C with PFA diluted at 4% in PBS. After that, gastric explants were washed twice with PBS and were included in an inclusion medium (TFM-EMS), in transverse position to allow cutting in the crypt-villosity axis using cryostat (Leica CM3050) (Leica Microsystems, Nanterre, France). Four sections of 5 µm thickness were obtained per explant, each section being separated by 100 µm from the next in order to cover all the tissue. Explants were then stained using hematoxylin and eosin (H&E) staining protocol. Briefly, samples were incubated for 8 min in hematoxylin (Sigma-Aldrich) and then allowed to stain by incubation with water for 2 min. Then explants were incubated for 1 min in eosin (Sigma-Aldrich) and then in water for 1 min. This was followed by incubation of explants with ethanol at concentration of 70% then 95% and finally 100% for 2 min each. After blotting excess ethanol, gastric explants were incubated for 15 min with xylene and mounted with coverslip using Eukitt mounting media (EMS, Hatfield, PA, USA). Finally, explants were left overnight to dry before examination of tissue organization under the microscope (Leitz DMRB microscope (Leïca), equipped with Leïca DFC 450C camera). Quantification of the release of LDH was also used in addition to microscopic observations to evaluate the impact of peptides on human gastric explants. Briefly, after 2, 4 or 8 h of incubation of the explants with the peptides, the supernatants of the wells were collected and stored at -80 °C before the LDH assay. The LDH activity was measured using previously described protocol with minor changes. Briefly, 50 µL of supernatants obtained from explants were mixed with 200 µL of Tris-Lactate buffer (containing Tris HCl at 86 mM, L-Lactate at 56 mM and KCl at 172 mM, pH 9.3, all from Sigma-Aldrich) and 20 µL of NAD (at 172 mM, Sigma-Aldrich) into well of 96-wells plates. Increase in OD339nm was then measured at 30 °C after 0, 1, 5, and 10 min using microplate reader (Synergy Mx, Biotek). […]
# [2] = test system: total lipids extracted from H. pylori (ATCC 43504); assay: Lipid insertion assay (lipid monolayer, critical pressure of insertion); design: species or system biophysical; conditions: peptide 1 µM, PBS pH 7.4, from the line fits of Figure 4
# Experimental: Peptide-lipid interaction was measured using reconstituted lipid monolayer at the air-water interface as previously described. Total lipids were extracted from overnight cultures of H. pylori (ATCC 43504) using Folch extraction procedure as previously described. Extracted total lipids were dried, resolubilized in chloroform:methanol (2:1, v/v) and stored at -20 °C under nitrogen. For peptide-lipid interaction assay, total lipid extract was spread using a 50 μL Hamilton's syringe at the surface of 800 μL of sterile PBS creating a lipid monolayer at the air-water interface. Lipids were added until the surface pressure reached the desired value. […] The variation of the surface pressure caused by peptide injection was then continuously monitored using a fully automated microtensiometer (μTROUGH SX, Kibron Inc., Helsinki, Finland) until reaching equilibrium (maximal surface pressure increase being usually obtained after 15-25 min). […] Variation of surface pressure was plotted as a function of initial surface pressure and the critical pressure of insertion of each peptide into H. pylori lipids was calculated as the theoretical value of initial pressure of lipid monolayer not permissive to peptide insertion, i.e., giving a variation of pressure equal to 0 mN/m.
# human gastric explants [3] = assay: Ex vivo toxicity assay, histological examination (H&E) of human gastric explants; format: cell-based; conditions: 2, 4 or 8 h; peptides 100 µM, CTAB 300 µM; H&E staining
# Experimental: To further evaluate the innocuity of the peptides, ex vivo experiments were performed using human explants as previously described. Briefly, human gastric tissue samples were obtained from patients undergoing surgery at the Hospital Laveran (Marseille, France), unit of gastrointestinal surgery according to a collaborative clinical transfer project. The procedures were approved by the French ethic committee (CODECOH n° DC-2019-3402). All patients agreed for the use of their tissues for research purposes. Samples were taken from healthy patients during sleeve gastrectomy from macroscopically unaffected area as identified by the surgeons. After resection, the specimens were placed in ice-cold oxygenated sterile DMEM solution containing 1% streptomycin/penicillin solution and 50 μg/mL gentamycin and were directly transferred to the laboratory within 15 min on ice. Gastric tissues were extensively washed and maintained in ice-cold culture media containing 1% streptomycin/penicillin solution and 50 μg/mL gentamycin. […] Quantification of the release of LDH was also used in addition to microscopic observations to evaluate the impact of peptides on human gastric explants. […] The LDH activity was measured using previously described protocol with minor changes. […] Increase in OD339nm was then measured at 30 °C after 0, 1, 5, and 10 min using microplate reader (Synergy Mx, Biotek). […]
smiles,measurement,setting,value
"CC[C@H](C)[C@H](NC(=O)CNC(=O)[C@H](CO)NC(=O)[C@H](CC(C)C)NC(=O)[C@@H](N)Cc1ccccc1)C(=O)N[C@H](C(=O)NCC(=O)N[C@@H](CCSC)C(=O)N[C@@H](CC(C)C)C(=O)N[C@H](C)C(=O)N[C@@H](CCCCN)C(=O)N[C@@H](CC(C)C)C(=O)N[C@@H](Cc1ccccc1)C(N)=O)C(C)C [NST1, H-Phe^1-Leu^2-Ser^3-Gly^4-Ile^5-Val^6-Gly^7-Met^8-Leu^9-D-Ala^10-Lys^11-Leu^12-Phe^13-NH2] (H-FLSGIVGML[dA]KLF-NH2)",LDH release,human gastric explants [1]; 2 h,8.3%
same,LDH release,human gastric explants [1]; 4 h,12.0%
same,LDH release,human gastric explants [1]; 8 h,25.0%
same,critical pressure of insertion (CPI),[2],38.65 mN/m
same,tissue organization by microscopic observation,human gastric explants [3],tissue organization close to the negative controls
